# According to patent US12630529B2, “GCN2 modulator compounds” (ALESTA THERAPEUTICS BV, priority 2020, dated 2026):
# pIC50: −log10 of the molar value.
# Target: T1, GCN2 (Mus musculus, UniProt Q9QZ05)
# T1 construct: endogenous in cells; host or cells: Neuro 2a (N2a)
# Assay: GCN2 inhibition cell-based assay (P-GCN2 Western blot in Neuro 2a cells)
# Conditions: amino acid deprived media (DMEM lacking L-cysteine and methionine), 3 hours
# Experimental: Neuro 2a cells (N2a) were maintained at 37° C. and 5% CO2 in DMEM/F12 medium (Fisher Scientific) supplemented with 10% fetal bovine serum and 1% penicillin-streptomycin (complete medium). 300,000 cells/well were seeded in flat bottom 6 well plates 48 hours before treatment with the compounds.
# Testing compounds were prepared at different concentrations ranging from 10 μM to 0.1 nM on DMEM medium lacking L-cysteine and methionine (DMEM-CM) (Gibco) and supplemented with 1% penicillin-streptomycin. Complete medium was used as control of non-stressed condition. After 48 hours, the medium was removed from each well and 2 mL per well of each treatment was added. Cells were treated for 3 hours at 37° C. and 5% CO2.
# After the incubation time, each well was washed with sterile 1×PBS and then 100 μL of ice-cold lysis buffer supplemented with phosphatase and protease inhibitors was added. Lysates were transferred to 1.5 mL tubes and sonicated for 3 min, and total protein amounts were quantified using BCA assay (e.g., BCA Protein Assay Kit; Pierce) according to manufacturer instructions. Equal amount of proteins was loaded on SDS-PAGE gels for electrophoresis and then transferred onto 0.2 µm filter pore PVDF membranes.
# Membranes were then blocked in blocking buffer containing 3% BSA/0.1% Tween/1×Tris-buffered saline (TBS) for 1 hour and then incubated overnight at 4° C. with agitation with anti-pGCN2 primary antibody (Abcam ab-75836), diluted 1:1,000 in blocking buffer. […] (Sigma Aldrich) was used as a loading control.
# Membranes were then incubated with the corresponding secondary antibody to detect immune-reactive bands using enhanced chemiluminescence (e.g., ECL Western Blotting Substrate Pierce).
# Images were acquired (e.g., using Chemidoc™ equipment) and quantitated by densitometry using ImageJ software. IC50 values were determined from a concentration-response curve using GraphPad prism software.
# IC50 values from P-GCN2 inhibition assay after induction with amino acid deprived media in the presence of different concentrations of test compounds are shown in Table 2. For IC50 values: +++ refers to <10 nM of test compound; ++ refers to 10 nM to 100 nM of test compound; + refers to 100 nM to 1,000 nM of test compound and − refers to >1,000 nM of test compound.
# Under GCN2-mediated stress conditions, resulting from an amino acid deprived medium, GCN2 is generally phosphorylated. Accordingly, inhibition of GCN2 phosphorylation as a result of the test compound indicates inhibition of the GCN2 pathway.
# T1 sequence (Q9QZ05 whole entry): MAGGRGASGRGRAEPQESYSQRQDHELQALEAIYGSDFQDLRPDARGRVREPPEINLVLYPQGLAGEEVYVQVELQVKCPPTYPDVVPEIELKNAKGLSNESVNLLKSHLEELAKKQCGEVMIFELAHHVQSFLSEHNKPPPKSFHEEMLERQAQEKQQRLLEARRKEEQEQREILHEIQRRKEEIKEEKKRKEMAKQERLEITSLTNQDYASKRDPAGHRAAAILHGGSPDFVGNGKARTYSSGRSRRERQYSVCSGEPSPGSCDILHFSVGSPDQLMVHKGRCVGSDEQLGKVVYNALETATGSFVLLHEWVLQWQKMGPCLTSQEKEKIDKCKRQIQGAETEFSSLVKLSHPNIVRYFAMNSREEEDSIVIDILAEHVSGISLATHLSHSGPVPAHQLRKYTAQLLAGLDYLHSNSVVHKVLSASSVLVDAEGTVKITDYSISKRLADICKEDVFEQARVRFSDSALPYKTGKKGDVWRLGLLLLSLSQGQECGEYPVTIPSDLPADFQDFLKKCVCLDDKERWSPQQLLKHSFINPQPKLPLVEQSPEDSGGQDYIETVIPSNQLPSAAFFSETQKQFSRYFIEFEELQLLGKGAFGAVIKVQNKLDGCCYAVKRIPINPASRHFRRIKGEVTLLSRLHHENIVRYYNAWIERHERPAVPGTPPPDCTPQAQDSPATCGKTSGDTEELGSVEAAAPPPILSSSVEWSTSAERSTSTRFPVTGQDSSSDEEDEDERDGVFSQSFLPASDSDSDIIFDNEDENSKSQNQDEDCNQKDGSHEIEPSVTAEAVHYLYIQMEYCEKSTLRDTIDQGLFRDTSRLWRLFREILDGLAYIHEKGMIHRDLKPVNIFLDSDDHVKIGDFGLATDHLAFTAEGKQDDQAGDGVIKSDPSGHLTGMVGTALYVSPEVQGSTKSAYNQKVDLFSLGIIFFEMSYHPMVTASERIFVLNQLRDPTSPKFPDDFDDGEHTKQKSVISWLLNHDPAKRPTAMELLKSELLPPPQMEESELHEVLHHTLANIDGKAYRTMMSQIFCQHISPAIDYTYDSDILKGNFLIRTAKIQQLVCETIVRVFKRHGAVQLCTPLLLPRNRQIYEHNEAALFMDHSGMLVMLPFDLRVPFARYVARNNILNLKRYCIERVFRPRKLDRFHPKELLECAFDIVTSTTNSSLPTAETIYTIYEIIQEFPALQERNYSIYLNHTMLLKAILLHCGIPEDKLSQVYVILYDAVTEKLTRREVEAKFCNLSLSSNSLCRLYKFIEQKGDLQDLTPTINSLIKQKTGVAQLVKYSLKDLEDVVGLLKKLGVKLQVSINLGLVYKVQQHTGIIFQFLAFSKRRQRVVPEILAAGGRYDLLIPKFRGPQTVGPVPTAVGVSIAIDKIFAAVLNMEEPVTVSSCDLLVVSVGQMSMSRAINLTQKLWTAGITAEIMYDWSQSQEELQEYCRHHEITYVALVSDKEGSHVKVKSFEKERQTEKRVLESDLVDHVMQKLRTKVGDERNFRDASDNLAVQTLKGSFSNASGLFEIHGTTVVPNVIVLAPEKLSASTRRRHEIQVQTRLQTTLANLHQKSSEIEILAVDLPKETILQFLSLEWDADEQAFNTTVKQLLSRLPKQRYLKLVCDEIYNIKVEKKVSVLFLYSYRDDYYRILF
row,SMILES,pIC50
1,COc1ccc(S(=O)(=O)Nc2ccc(F)c(-c3ccc4nc(N)ncc4c3)c2F)cc1C [Compound 117],< 6.00
2,COc1ncc(Cl)cc1S(=O)(=O)Nc1ccc(F)c(-c2cccc3nc(N)ncc23)c1F [Compound 45],< 6.00
3,Nc1ncnc2ccc(-c3c(F)ccc(NS(=O)(=O)c4cc(Cl)ccc4Cl)c3F)cc12 [Compound 17],< 6.00
4,Nc1ncc2cc(-c3c(F)ccc(NS(=O)(=O)c4ccc(F)c(F)c4)c3F)ccc2n1 [Compound 132],< 6.00
5,Nc1ncc2cc(-c3c(F)ccc(N[S+]([O-])c4ccc(Cl)cc4Cl)c3F)ccc2n1 (centres unmarked) [Compound 15],6.00 to 7.00
6,Nc1ncc2cc(-c3c(F)ccc(NS(=O)(=O)c4ccsc4)c3F)ccc2n1 [Compound 140],< 6.00
7,Nc1ncc2cc(-c3c(F)ccc(NS(=O)(=O)c4cccc(F)c4)c3F)ccc2n1 [Compound 116],< 6.00
8,Cc1ccc(NS(=O)(=O)c2cc(Cl)ccc2Cl)cc1-c1ccc2nc(N)ncc2c1 [Compound 16],6.00 to 7.00
9,Nc1ncc2cc(-c3c(F)ccc(NS(=O)(=O)c4cc(C(F)(F)F)ccc4F)c3F)ccc2n1 [Compound 135],6.00 to 7.00
10,Nc1ncc2cc(-c3c(F)ccc(NS(=O)(=O)c4ccc(Cl)c(F)c4)c3F)ccc2n1 [Compound 146],6.00 to 7.00
11,Nc1ncc2cc(-c3c(F)ccc(NS(=O)(=O)c4ccc(F)c(C(F)(F)F)c4)c3F)ccc2n1 [Compound 136],6.00 to 7.00
12,COc1cc(S(=O)(=O)Nc2ccc(F)c(-c3ccc4nc(N)ncc4c3)c2F)ccc1F [Compound 143],6.00 to 7.00
13,Cc1ccc(S(=O)(=O)Nc2ccc(F)c(-c3ccc4nc(N)ncc4c3)c2F)cc1Cl [Compound 147],6.00 to 7.00

# Second part, the compound after the results:
row,pIC50,SMILES
1,> 8.00,O=S(=O)(Nc1ccc(F)c(-c2ccc3nc(NC4CCOC4)ncc3c2)c1F)c1cc(Cl)ccc1Cl (centres unmarked) [Compound 168]
2,6.00 to 7.00,O=S(=O)(Nc1ccc(F)c(-c2ccc3nc(N[C@H](CO)c4ccccc4)ncc3c2)c1F)c1cc(Cl)ccc1C(F)(F)F [Compound 166]
3,> 8.00,COc1ncc(Cl)cc1S(=O)(=O)Nc1ccc(F)c(-c2ccc3nc(NCCO)ncc3c2)c1F [Compound 46]
4,6.00 to 7.00,COc1ccc(S(=O)(=O)Nc2ccc(F)c(-c3ccc4nc(N)ncc4c3)c2F)cc1Cl [Compound 148]
5,7.00 to 8.00,Nc1ncc2cc(-c3c(F)ccc(NS(=O)(=O)c4cc(Cl)c(Cl)cc4Cl)c3F)ccc2n1 [Compound 150]
6,7.00 to 8.00,Cc1ccc(S(=O)(=O)Nc2ccc(F)c(-c3ccc4nc(N)ncc4c3)c2F)cc1F [Compound 159]
7,> 8.00,COc1ncc(Cl)cc1S(=O)(=O)Nc1ccc(F)c(-c2ccc3nc(N[C@@H](C)CO)ncc3c2)c1F [Compound 157]
8,7.00 to 8.00,COc1ccc(S(=O)(=O)Nc2ccc(F)c(-c3ccc4nc(N)ncc4c3)c2F)cc1OC [Compound 115]
9,> 8.00,CC(=O)Nc1ncc2cc(-c3c(F)ccc(NS(=O)(=O)c4cc(Cl)ccc4Cl)c3F)ccc2n1 [Compound 106]
10,> 8.00,O=S(=O)(Nc1ccc(F)c(-c2ccc3nc(N[C@H]4CC[C@H](O)CC4)ncc3c2)c1F)c1cc(Cl)cc(CO)c1Cl [Compound 69]
11,> 8.00,O=S(=O)(Nc1ncc(F)c(-c2ccc3nc(NCCO)ncc3c2)c1F)c1cc(Cl)ccc1Cl [Compound 128]
12,> 8.00,O=S(=O)(Nc1ccc(F)c(-c2ccc3nc(N[C@H]4CC[C@H](O)CC4)ncc3c2)c1F)c1cc(Cl)ccc1C(F)(F)F [Compound 164]
13,7.00 to 8.00,O=S(=O)(Nc1ccc(F)c(-c2ccc3nc(N[C@H]4CC[C@@H](O)CC4)ncc3c2)c1F)c1cc(Cl)ccc1C(F)(F)F [Compound 165]
14,7.00 to 8.00,CNc1ncc2cc(-c3c(F)ccc(NS(=O)(=O)c4cc(Cl)cc(CO)c4Cl)c3F)ccc2n1 [Compound 162]
15,> 8.00,Nc1ncc2cc(-c3c(F)ccc(NS(=O)(=O)c4cc(Cl)cc(Cl)c4)c3F)ccc2n1 [Compound 59]
16,7.00 to 8.00,Nc1ncc2cc(-c3c(F)ccc(NS(=O)(=O)c4cc(C(F)(F)F)cc(C(F)(F)F)c4)c3F)ccc2n1 [Compound 144]
